Data: ChEMBL document CHEMBL1201862, “PubChem BioAssay data set” (2004)
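Values below derive from 48-hour exposures of cells grown in 96-well plates, with endpoints linearly interpolated between the two concentrations bracketing the appropriate inhibition level. The concentration for 50% growth inhibition is given as GI50.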 The source made the active and inactive calls. No stated cut-off is given here; in the data, active = GI50 up to about 1.1 µM and inactive = higher.

Key:
Experiment in all cases: growth of human tumour cells (NCI), 48 h
[1] = test system: UO-31
[2] = test system: HCT-116
[3] = test system: SR
[4] = test system: NCI-H460
[5] = test system: RPMI-8226
[6] = test system: HCC 2998
[7] = test system: OVCAR-8
[8] = test system: SF-268
[9] = test system: UACC-257
[10] = test system: DU-145
[11] = test system: NCI-H23
[12] = test system: HOP-62
[13] = test system: EKVX
[14] = test system: SNB-75
[15] = test system: OVCAR-3
[16] = test system: PC-3
[17] = test system: MCF7
[18] = test system: MDA-MB-231
[19] = test system: LOX IMVI

Compound	GI50 [1]	GI50 [2]	GI50 [3]	GI50 [4]	GI50 [5]	GI50 [6]	GI50 [7]	GI50 [8]	GI50 [9]	GI50 [10]	GI50 [11]	GI50 [12]	GI50 [13]	GI50 [14]	GI50 [15]	GI50 [16]	GI50 [17]	GI50 [18]	GI50 [19]
CN1CCc2ccccc2C1Cc1ccccc1NC(=O)c1sc2ccccc2c1Cl (centres undefined)	> 100 µM (inactive)	> 100 µM (inactive)	> 100 µM (inactive)	> 100 µM (inactive)	> 100 µM (inactive)	> 100 µM (inactive)	> 100 µM (inactive)	> 100 µM (inactive)	> 100 µM (inactive)	> 100 µM (inactive)	> 100 µM (inactive)	> 100 µM (inactive)	> 100 µM (inactive)	> 100 µM (inactive)	> 100 µM (inactive)	> 100 µM (inactive)	> 100 µM (inactive)	> 100 µM (inactive)	–
CN(C)Cc1c[nH]c2ncnc(O)c12	62.2 µM (inactive)	22.4 µM (inactive)	27.1 µM (inactive)	26.2 µM (inactive)	20.6 µM (inactive)	–	29 µM (inactive)	73.1 µM (inactive)	23 µM (inactive)	26.4 µM (inactive)	32.2 µM (inactive)	> 100 µM (inactive)	98.2 µM (inactive)	33.3 µM (inactive)	> 100 µM (inactive)	56.2 µM (inactive)	24.7 µM (inactive)	72.4 µM (inactive)	19 µM (inactive)
CCCCC/C=C1\CC(CO)(COC(=O)CC(C(C)C)C(C)C)OC1=O (centres undefined)	13.7 µM (inactive)	18.7 µM (inactive)	28.6 µM (inactive)	16.4 µM (inactive)	–	15.4 µM (inactive)	18.2 µM (inactive)	17.9 µM (inactive)	21.1 µM (inactive)	15.6 µM (inactive)	17.5 µM (inactive)	6 µM (inactive)	13.7 µM (inactive)	12.1 µM (inactive)	17.5 µM (inactive)	10.5 µM (inactive)	21.6 µM (inactive)	17.9 µM (inactive)	–
CCOn1cc(C[C@@]2(O)C(=O)OC3[C@@H](O)CO[C@@]32O)c2ccccc21 (some centres undefined)	> 100 µM (inactive)	> 100 µM (inactive)	> 100 µM (inactive)	> 100 µM (inactive)	> 100 µM (inactive)	–	> 100 µM (inactive)	> 100 µM (inactive)	> 100 µM (inactive)	> 100 µM (inactive)	> 100 µM (inactive)	> 100 µM (inactive)	> 100 µM (inactive)	> 100 µM (inactive)	> 100 µM (inactive)	> 100 µM (inactive)	> 100 µM (inactive)	> 100 µM (inactive)	> 100 µM (inactive)
Cn1c(=O)c2sc3cc4c(cc3c2c2ccccc21)sc1c(=O)n(C)c2ccccc2c14	74.8 µM (inactive)	67.5 µM (inactive)	25.8 µM (inactive)	52.4 µM (inactive)	> 100 µM (inactive)	> 100 µM (inactive)	41.7 µM (inactive)	59.7 µM (inactive)	> 100 µM (inactive)	> 100 µM (inactive)	45.7 µM (inactive)	19.9 µM (inactive)	> 100 µM (inactive)	12.9 µM (inactive)	> 100 µM (inactive)	> 100 µM (inactive)	> 100 µM (inactive)	16.6 µM (inactive)	–
C[C@H]1OC(=O)[C@@H]2N=NN(Cc3ccccc3)[C@H]12	> 100 µM (inactive)	> 100 µM (inactive)	> 100 µM (inactive)	> 100 µM (inactive)	> 100 µM (inactive)	> 100 µM (inactive)	> 100 µM (inactive)	> 100 µM (inactive)	–	> 100 µM (inactive)	> 100 µM (inactive)	> 100 µM (inactive)	–	–	> 100 µM (inactive)	> 100 µM (inactive)	> 100 µM (inactive)	> 100 µM (inactive)	–
Cc1ccc(/N=N/C(=NNC(=O)c2ccc(C)cc2)c2ccc(N(C)C)cc2)cc1	26.1 µM (inactive)	24.2 µM (inactive)	17.9 µM (inactive)	25.3 µM (inactive)	22.3 µM (inactive)	27.4 µM (inactive)	31.8 µM (inactive)	38.5 µM (inactive)	21.9 µM (inactive)	20.8 µM (inactive)	24.3 µM (inactive)	–	30.1 µM (inactive)	–	17.6 µM (inactive)	42.6 µM (inactive)	20 µM (inactive)	50.2 µM (inactive)	33.4 µM (inactive)
Cc1c(CCCl)c(=O)n2c([nH]c3ccccc32)c1C#N	1.91 µM (inactive)	0.614 µM (active)	0.527 µM (active)	1.72 µM (inactive)	1.3 µM (inactive)	–	1.6 µM (inactive)	1.95 µM (inactive)	2.73 µM (inactive)	2.21 µM (inactive)	1.53 µM (inactive)	1.82 µM (inactive)	1.84 µM (inactive)	1.45 µM (inactive)	1.73 µM (inactive)	1.45 µM (inactive)	1.61 µM (inactive)	1.52 µM (inactive)	0.619 µM (active)
CCCCCCCCCCCCCCCCS(=O)(=O)c1ccc(NN)cc1	–	4.76 µM (inactive)	2.77 µM (inactive)	> 10 µM (inactive)	5.33 µM (inactive)	> 10 µM (inactive)	6.53 µM (inactive)	9.38 µM (inactive)	> 10 µM (inactive)	> 10 µM (inactive)	4.88 µM (inactive)	> 10 µM (inactive)	> 10 µM (inactive)	–	8.81 µM (inactive)	2.83 µM (inactive)	> 10 µM (inactive)	> 10 µM (inactive)	4.29 µM (inactive)
O=C1c2c(O)cccc2Cc2cc(CO)cc(O)c21	1.89 µM (inactive)	2.31 µM (inactive)	2.82 µM (inactive)	0.619 µM (active)	0.743 µM (active)	2.66 µM (inactive)	2.74 µM (inactive)	2.05 µM (inactive)	2.14 µM (inactive)	3.86 µM (inactive)	1.85 µM (inactive)	3.01 µM (inactive)	3.03 µM (inactive)	1.05 µM (active)	1.66 µM (inactive)	1.08 µM (active)	2.58 µM (inactive)	2.3 µM (inactive)	–
COc1cc(-c2oc3c(OC)c(O)c(OC)c(O)c3c(=O)c2OC)ccc1O	31.6 µM (inactive)	50.6 µM (inactive)	41.5 µM (inactive)	46.1 µM (inactive)	26.1 µM (inactive)	45.3 µM (inactive)	68.5 µM (inactive)	–	60.5 µM (inactive)	32 µM (inactive)	52.4 µM (inactive)	23.1 µM (inactive)	78.7 µM (inactive)	–	24.3 µM (inactive)	48.9 µM (inactive)	28.9 µM (inactive)	44.2 µM (inactive)	26.9 µM (inactive)
NC1=NCCN1CC(=O)O [CYCLOCREATINE]	> 1000 µM (inactive)	> 1000 µM (inactive)	> 1000 µM (inactive)	> 1000 µM (inactive)	> 1000 µM (inactive)	> 1000 µM (inactive)	> 1000 µM (inactive)	4990 µM (inactive)	> 1000 µM (inactive)	> 1000 µM (inactive)	> 1000 µM (inactive)	> 1000 µM (inactive)	> 10000 µM (inactive)	–	> 1000 µM (inactive)	> 1000 µM (inactive)	> 1000 µM (inactive)	> 1000 µM (inactive)	> 1000 µM (inactive)
